Laboratory results as given in US5914242A, “Method for diminishing myocardial infarction using protein phosphatase inhibitors” (priority 1997, dated 1999).
Entries after “also recorded” stand apart in the source; their conditions may differ.

What was measured:
[1] = test system: protein phosphatase type 2A (PP2A); experiment: Protein phosphatase inhibition assay, purified catalytic subunit, [32P]-phosphohistone or phosphorylase a substrate; format: biochemical
Method: (§1) FIG. 4: Effect of fostriecin on the activity of protein phosphatase type 1 (PP1) and protein phosphatase type 2A (PP2A). The activity of the purified catalytic subunits of PP1 (Δ,s) or PP2A (O,1) was assayed in the presence of the indicated amount of fostriecin. The inhibition assays employed freshly prepared [^32 P]-phosphohistone (open symbols) or [^32 P]phosphorylase A (filled symbols) as substrate and highly purified catalytic subunits of PP1 or PP2A. Assays were conducted in a total volume of 80 μl, and the indicated amount of fostriecin was added to the assay 10 minutes prior to initiation of the reaction by the addition of substrate. Each point represents the mean ± SE (n>6).
(§2) Determination of protein phosphatase activity: Protein phosphatase activity against phosphohistone was determined by the quantification of liberated [^32 P] from phosphohistone according to previously established methods (see Honkanen et al., J. Biol. Chem. 265:19401-04 (1990); Honkanen et al., Mol. Pharmacol. 40:577-83 (1991); and Critz and Honkanen, Neuroprotocols 6:78-83 (1995)). Assays (80 μl final volume) were conducted in 50 mM Tris-buffer (pH 7.4) containing 0.5 mM DTT, 4 mM EDTA, and phosphoprotein (2 μM PO4). The assay was initiated by the addition of substrate (30 μl) to a 1.5 ml microfuge tube containing 50 μl of dilute homogenate. Assays were conducted at 30° C. for 10 minutes and were stopped by the addition of 100 μl of 1N H2 SO4 containing 1 mM K2 HPO4. [^32 P]Phosphate liberated by the enzyme was then extracted as a phosphomolybdate complex and measured according to the methods of Killilea et al., Arch. Biochem. Biophys. 191:638-46 (1978)). Briefly, free phosphate was extracted by adding 20 μl of ammonium molybdate (7.5% w/v in 1.4 N H2 SO4) and 250 μl of isobutanol:benzine (1:1, v/v) to each tube. The tubes were mixed vigorously for approximately 10 seconds followed by centrifugation at 14,000×g for 2 minutes. Aliquots of the upper phase (100 μl) were removed for counting, and radioactivity was quantified with a scintillation counter.
(§3) For inhibition studies, the indicated amount of fostriecin or okadaic acid was added to the enzyme mixture 10 minutes before the reaction was initiated with the addition of substrate. Controls received solvent alone, and in all experiments the amount of enzyme was diluted to ensure that the samples were below the titration endpoint. The titration endpoint is defined as the concentration of enzyme after which further dilution no longer affects the IC50 of the toxin, and represents a point where the concentration of enzyme used in the assay no longer approaches that of the toxin. This ensures that IC50 represents the potency of the inhibitor alone and is not representative of a combination of potency of the toxin and titration artifacts of the assay system. Preliminary assays were also performed to ensure the dephosphorylation reaction was linear with respect to enzyme concentration and time.
(§4) The catalytic subunit of PP2A was purified to apparent homogeneity according to established methods as described by Pallas et al., Cell 60:167-176 (1990) using G-75 Sephadex in the place of Ultrogel-AcA44 as previously reported in Brautigan et al., J. Biol. Chem. 260:4295-02 and Honkanen et al., Mol. Pharmacol 40:577-83 (1991). PP1 and PP2A both are now also available from several commercial sources.

[2] = test system: protein phosphatase type 1 (PP1); experiment: as above; format: biochemical
Method: as §1, §2, §3, §4

isolated myocytes = experiment: Isolated myocyte simulated ischemia, osmotic fragility (trypan blue) index; format: cell-based, rabbit; settings: 10 μM fostriecin added at onset of ischemia, 120 min; untreated cells 14.3
Method: Isolated Myocytes: Rabbit hearts were mounted on a perfusion apparatus as described above and perfused with "high potassium/low calcium" perfusion buffer containing 125 mM NaCl, 30 mM KCl, 25 mM NaHCO3, 1.2 mM KH2 PO4, 1 mg/ml BSA, 1.2 mM MgCl2, 11 mM glucose, 0.68 mM 1-glutamine, and a complete amino acid solution (pH 7.4) for 5 minutes. Collagenase (Worthington Biochemical, Freehold, N.J.) was added at a concentration of 1.25 mg/ml and the heart was perfused for 45-60 minutes until it became soft. The heart was removed from the apparatus and minced in 5 mls of perfusion buffer containing 0.1% w/v BSA. […] Cell counts and viability were assessed by removing 10 μl aliquots, mixing with an equal volume of Tyrode's solution containing 1% trypan blue, and counting within 3-5 minutes by light microscopy. […]
To simulate ischemia, the suspension was divided into 4-6 conical Eppendorf tubes and each tube was spun lightly to form a 0.2-0.5 ml pellet of packed cells. […] Within 5 minutes, at least 300 cells were examined with an inverted stage microscope from multiple areas of the slide, and the numbers of rounded and rod-shaped cells and those stained with trypan blue recorded. […]
The percentage of stained (dead) cells was determined, and a plot of % dead cells vs. time was constructed. An index of non-survival was calculated as the area under the curve after 2 hours and presented as %-hr. […]

[3] = test system: a variety of protein kinases; experiment: Effect on protein kinases; format: biochemical
PP2B = experiment: Effect on PP2B; format: biochemical
[4] = phosphohistone and phosphorylase-a substrates

SMILES: CC(O)(/C=C/C1CC=CC(=O)O1)C(CC(O)\C=C/C=C\C=C\CO)OP(=O)(O)O (centres unmarked) [fostriecin]
- inhibition of PP2A at the protective concentration ([1]; 1-10 μM fostriecin): inhibits the activity of PP2A; also recorded: inhibits PP2A completely
- inhibition of PP2A catalytic subunit [1, 4]: inhibited by fostriecin in a dose-dependent manner
- concentration inhibiting PP2A relative to PP1 ([1]; purified catalytic subunits): at a lower concentration than PP1
- effect on PP1 at the protective concentration ([2]; 1-10 μM fostriecin): no direct effect; also recorded: minor effect
- inhibition of PP1 catalytic subunit [2, 4]: inhibited by fostriecin in a dose-dependent manner
- cell fragility index, area under the % trypan blue-positive cells vs time curve (isolated myocytes): 10.6 %.cndot.hr
- effect on a variety of protein kinases [3]: no effect
- effect on PP2B (PP2B): no effect
